Earlier results as cited in patent publication US10076496B2, “Engineering of polymer-stabilized nanoparticles for drugs with Log P values below 6 by controlled antisolvent precipitation” (THE CHINESE UNIVERSITY OF HONG KONG, priority 2011, dated 2018).

Log P: 7.38
SMILES: CC(=O)O[C@H]1C(=O)[C@@]2(C)[C@H]([C@H](OC(=O)c3ccccc3)[C@]3(O)C[C@H](OC(=O)[C@H](O)[C@@H](NC(=O)c4ccccc4)c4ccccc4)C(C)=C1C3(C)C)[C@]1(OC(C)=O)CO[C@@H]1C[C@@H]2O [paclitaxel]
